Assay results published in patent US9284297B2, “Halofuginone analogs for inhibition of tRNA synthetases and uses thereof” (President and Fellows of Harvard College, priority 2008, dated 2016).

Columns and labels:
adjuvant-driven EAE = assay: Adjuvant-driven experimental autoimmune encephalomyelitis (EAE), MOG33-55 immunization; format: in vivo, mice
Source text: The ability of systemic HF treatment to block IL-17 expression and associated autoimmune inflammation in vivo was examined using two distinct models of experimental autoimmune encephalomyelitis (EAE). […] The second model, a passive model of EAE induction, is initiated by the transfer of myelin proteolipid protein (PLP)-reactive T cells into lymphopenic hosts.
Adjuvant-driven EAE was induced in 8 week-old wild-type B6 mice purchased from Charles River laboratories (Kingston, N.Y.) by subcutaneous injection of […] peptide emulsified in Incomplete Freund's Adjuvant (IFA) plus 5 mg/ml heat-killed M. tuburculosis (BD Biosciences) in both dorsal flanks as described in Veldhoen et al. (Nat. Immunol. 7(11):1151-1156, 2006).
Mice were injected daily with HF (2 μg/mouse) or vehicle control (DMSO) i.p. Clinical signs of EAE were assessed according to the following score: 0, no signs of disease; 1, flaccid tail; 2, weak gait/hind limb paresis; 3, hind limb paralysis; 4, tetraplegia; 5, moribund. Cytokine production during EAE was determined either in peripheral T cells isolated from spleen or lymph nodes of mice prior to disease onset (day 6-10) or in mononuclear cells isolated from the brain and spinal cords of mice with severe disease (clinical score ≧2) between days 15-20. Briefly, splenocytes were stained for intracellular cytokines following erythrocyte lysis with ammonium chloride buffer. T cells were isolated from brain and spinal cords of mice with active EAE following perfusion with cold PBS. Minced CNS tissue was digested with liberase C1 (0.33 mg/ml, Roche Diagnostics) or collagenase D (10 mg/ml, Roche Diagnostics) at 37° C. for 30-45 minutes. Cell suspensions were passed through 70 μm cell strainers (VWR) and fractionated by 70%/30% Percoll gradient centrifugation. Mononuclear cells were collected from the interphase, washed, and used for intracellular cytokine analysis.

[1] = test system: eIF2α phosphorylation and ATF4 protein levels in CD4+ CD25− T cells; assay: Amino acid response (AAR) pathway activation in T cells, western blot; format: cell-based, mice
Method: CD4+ CD25− T cells purified from wild type of GCN2−/− mice were activated through TCR for 4 hours in the presence of halofuginone (10 nM) or 9 (MAZ1310, 10 nM). Whole cell lysates were analyzed by SDS PAGE/Western blot and antibodies indicated.
Naïve T-cells were treated to stimulate the T-cell receptor (TCR) in the presence or absence of 10 nM halofuginone in the presence of 1 mM added amino acid, and then assayed for eIF2alpha activity phosphorylation by SDS PAGE/Western blot.
HF induced detectable eIF2α phosphorylation at 2.5 nM, and this effect plateaued at 5-10 nM HF (FIG. 7D). […] AAR activation was a general consequence of HF treatment; HF induced eIF2α phosphorylation, not only in T cells activated in Th17-priming conditions, but also in resting naïve T cells and T cells activated in ThN, Th1, Th2, and iTreg polarizing conditions (FIG. 7F). […] Thus, the rapid activation of the AAR pathway by HF could underlie both its selective inhibition of Th17 differentiation and its effects on fibroblasts (Pines and Nagler, Gen. Pharmacol. 30:445, 1998).
To delineate the stress response pathway activated by HF, the effects of amino acid starvation with those of tunicamycin (an inducer of ER stress) or HF treatment during T cell activation were compared.
Whole cell lysates were generated from T cells activated for the indicated times. For STAT3 and Smad2/3 western blots cells were harvested, washed in PBS and lysed in 50 mM Tris, pH 7.4, 0.1% SDS, 1% Triton-X100, 140 mM NaCl, 1 mM EDTA, 1 mM EGTA supplemented with protease inhibitors tablets (Roche, Germany), 1 mM NaF and 1 mM Na3VO4. For eIF2α and ATF4 western blots, cells were harvested as above and lysed in 50 mM Tris, pH 7.4, 2% SDS, 20% glycerol and 2 mM EDTA supplemented with protease and phosphatase inhibitors as above. All lysates were cleared via centrifugation and 15-30 μg of protein was resolved by SDS-PAGE. Protein was transferred to nitrocellulose membranes, blocked and blotted using specific antibodies. Antibodies used for western blot analysis were anti-phospho-Smad2, anti-STAT3 (pY705), anti-STAT3, anti-eIF2α^pS51, anti-eIF2α (all from Cell Signaling Technology, Danvers, Mass.). Anti-ATF4/CREB2 and anti-β-actin were purchased from Santa Cruz Biotechnology (Santa Cruz, Calif.). HRP-conjugated secondary antibodies were all purchased from Sigma, with the exception of HRP-conjugated anti-armenian hamster antibody (Jackson Immunoresearch, West Grove, Pa.).

[2] = test system: eIF2α phosphorylation and AAR-associated transcripts (Asns, Gpt2, eIF4Ebp1) in splenocytes; assay: AAR activation in splenocytes of HF-injected mice; format: in vivo; conditions: i.p. 2.5 mg HF; spleens harvested 6 hours post injection
Method: FIG. 18F, left panel, depicts western blot analysis of protein from cells of wild-type mice injected i.p. with vehicle (DMSO) or 2.5 mg HF. Spleens were harvested 6 hours post injection, red blood cells were removed by NH4Cl lysis buffer and immunoblotting for phosphorylated or total eIF2a was performed on whole cell extracts. FIG. 20F, right panel is a graph depicting levels of AAR-associated gene expression (Asns, Gpt2, eIF4Ebp1) analyzed by quantitative real-time PCR using cDNA from splenocytes of mice treated with DMSO or HF as above. Expression of AAR-associated transcripts were normalized to Hprt levels and data are presented as mean relative expression from duplicate samples±SD. All data represent 2-3 similar experiments.
HF-mediated protection from adjuvant-driven EAE was accompanied by a reduction in T cell-derived IL-17-expression, both in peripheral lymph nodes prior to disease onset and in CNS tissue during active disease (FIG. 18E), as well as an overall reduction in CD4^+ T cell infiltrates into the CNS (FIG. 19).

[3] = test system: Human primary dermal fibroblasts; assay: Inhibition of cell spreading in a fibroblast model; format: cell-based; design: key: “+++” vs. “++” vs. “+” in general denotes ˜4-fold differences in potency; “+++” vs. “++” vs. “+” in general denotes ˜4-fold differences in potency; “+++” vs. “++” vs. “+” in general denotes ˜4-fold differences in potency; “−” denotes no activity at any dose tested, up to 1000× the effective dose of halofuginone; conditions: spreading of cells assessed by light microscopy 28 hours after treatment
Method: The ability of halofuginone and analogs thereof to inhibit the spreading of freshly plated primary dermal fibroblasts was examined. Human primary dermal fibroblasts were replated and halofuginone added immediately after replating; spreading of cells was assessed by light microscopy 28 hours after treatment with compound. “+++” vs. “++” vs. “+” in general denotes ˜4-fold differences in potency. “−” denotes no activity at any dose tested, up to 1000× the effective dose of halofuginone.

Compound: O=C(CC1NCCCC1O)Cn1cnc2cc(Br)c(Cl)cc2c1=O (stereo not shown) [Compound 1, 7-bromo-6-chloro-3-[3-(3-hydroxy-2-piperidinyl)-2-oxopropyl]-4(3H)-quinazolinone]
- IL-17 and IFNγ expression in T cells of lymph nodes and CNS (adjuvant-driven EAE; 2 μg HF daily i.p.): impaired IL-17 production but did not affect IFNγ expression
- EAE disease severity and frequency of onset (adjuvant-driven EAE; 2 μg HF daily, ˜0.1 mg/kg, i.p.): significantly reduced both the severity of adjuvant-driven EAE disease and frequency of disease onset
- EAE, HF not introduced until day 10 following immunization (adjuvant-driven EAE; treatment from day 10): controls autoimmune inflammation even after inflammatory pathogenesis is evident
- EAE, HF injection terminated at day 10 following immunization (adjuvant-driven EAE; treatment until day 10): exerts a protective effect that extends well beyond the time of treatment
- time to maximum eIF2α phosphorylation ([1]; 10 nM HF): ≤ 2 h
- rescue of eIF2alpha phosphorylation by added amino acid ([1]; 10 nM halofuginone, 1 mM added amino acid): blocked by added proline
- phosphorylation of Ser51 of eIF2alpha, GCN2 dependence ([1]; 10 nM, 4 hours, T cells from wild type or GCN2−/− mice): leads to phosphorylation of Ser51 of eif2alpha only in wild type cells and not in GCN2−/− cells
- concentration at which eIF2α phosphorylation plateaued ([1]; 4 hours-post TCR activation): 5 to 10 nM
- concentration inducing detectable eIF2α phosphorylation ([1]; 4 hours-post TCR activation): 2.5 nM
- concentration with highest ATF4 expression levels ([1]; 4 hours-post TCR activation): 5 to 10 nM
- stress response pathway: eIF2α phosphorylation, ATF4 expression, Xbp-1 splicing ([1]; 4 hours, 10 nM HF or 1 μg/ml tunicamycin): inducing eIF2α phosphorylation without promoting Xbp-1 splicing
- eIF2α phosphorylation and AAR-associated transcripts in splenocytes ex vivo [2]: increased eIF2α phosphorylation and expression of AAR-associated transcripts
- Fibroblast inhibition [3]: +++
